Test results reported in patent US10544112B2, “Identification of ebsulfur analogues with broad-spectrum antifungal activity” (priority 2017, dated 2020).
≈ marks a conversion by molar mass, not a printed value.

Experiments:
[1] = test system: Aspergillus terreus ATCC MYA-3633 (strain M); experiment: Antifungal MIC determination, filamentous fungi spores; type: cell-based; settings: strain M; all compounds; spores
Description: (§1) Fungal MIC determination experiments were performed using untreated 96-well plates (Corning). Cells were counted either by using a hemocytometer (Hausser Scientific, Horsham, Pa., USA) or by measuring optical density at attenuance of 600 nm (OD600) by using a Genesys 20 spectrophotometer (Thermo Scientific, Waltham, Mass., USA). Spectrophotometric and colorimetric measurements in 96-well plates were performed using a SpectraMax M5 spectrometer (Molecular Devices, Sunnyvale, Calif., USA).
(§2) Yeast strains Candida albicans ATCC 10231 (strain A), C. albicans ATCC 64124 (strain B), and C. albicans ATCC MYA-2876(S) (strain C) were kindly provided by Dr. Jon Y. Takemoto (Utah State University, Logan, UT, USA). C. albicans ATCC MYA-90819(R) (strain D), C. albicans ATCC MYA-2310(S) (strain E), C. albicans ATCC 1237(R) (strain F), C. albicans ATCC MYA-1003(R) (strain G), Candida glabrata ATCC 2001 (strain H), Candida krusei ATCC 6258 (strain I), and Candida parapsilosis ATCC 22019 (strain J) were obtained from the American Type Culture Collection (ATCC, Manassas, Va., USA). The (S) and (R) indicate that ATCC reports these strains to be susceptible (S) and resistant (R) to ITC and FLC. The filamentous fungal strains Aspergillus flavus ATCC MYA-3631 (strain K), and Aspergillus terreus ATCC MYA-3633 (strain M) were also obtained from the American Type Culture Collection (ATCC, Manassas, Va., USA). Aspergillus nidulans ATCC 38163 (strain L) was kindly provided by Dr. Jon S. Thorson (University of Kentucky, Lexington, Ky., USA), respectively. Yeast strains were cultured at 35° C. Filamentous fungal strains were cultured at 25° C. and the spores were harvested. All fungal strains were cultured in RPMI 1640 medium (catalog # R6504, Sigma-Aldrich Chemical Co., St. Louis, Mo.) buffered to pH 7.0 with 0.165 M morpholinepropanesulfonic acid (MOPS) buffer (Sigma-Aldrich Chemical Co.).
(§3) The MIC values against fungal strains were determined based on a previously published protocol. MIC values for ebsulfur (2a) analogues against fungal cells were evaluated in 96-well plates as described in the CLSI document M27-A3 with minor modifications. […] Therefore, potato dextrose broth (PDB) was used to grow the yeast inocula of all strains tested, which were later diluted in RPMI 1640 medium to perform determination of MIC values. […] The tested compounds (10 mg/mL) were diluted to the working stocks (500 μg/mL) by addition of DMSO. Two-fold serial dilution of the working stocks was prepared by addition of RPMI 1640 medium (100 μL) and cell suspension (100 μL) to 96-well microtiter plate to achieve final drug and inoculum concentrations ranging from 12.5-0.02 μg/mL and 5×10^3 CFU/mL, respectively. Plates were incubated for 48 h at 35° C.
(§4) MIC assays for the spore-forming filamentous fungi, such as strain A. flavus ATCC MYA-3631 (strain K), were performed in a similar fashion. The filamentous fungal strains were first cultured at 25° C. on potato dextrose agar (PDA) plates for 3-5 days or until confluent. Spores were collected by washing the surface of the agar plates with dd H2O (5 mL) and then isolated the spores by gravity filtration (the spores are H2O soluble). […] Researchers working with spores should wear a facemask to prevent spore inhalation.

[2] = test system: Aspergillus nidulans ATCC 38163 (strain L); experiment: as above; type: cell-based; settings: strain L; spores
Description: as §1, §2, §3, §4

[3] = test system: Aspergillus flavus ATCC MYA-3631 (strain K); experiment: as above; type: cell-based; settings: all compounds
Description: as §1, §2, §3, §4

[4] = test system: C. albicans ATCC MYA-1237(R) (strain F); experiment: microbe, parasite or virus in culture; type: cell-based, Candida albicans; settings: strain F; compounds 1-4n and AmB; 48 h, RPMI 1640
Description: as §1, §2
as §3, with “C. […]” for “C.”

[5] = test system: C. albicans ATCC 90819(R) (strain D); experiment: microbe, parasite or virus in culture; type: cell-based, Candida albicans; settings: strain D; compounds 1-4n and AmB; 48 h, RPMI 1640
Description: as §1, §2
as §3, with “C. […]” for “C.”

[6] = test system: C. albicans ATCC 64124 (strain B); experiment: microbe, parasite or virus in culture; type: cell-based, Candida albicans; settings: strain B; compounds 1-4n and AmB; 48 h, RPMI 1640
Description: as §1, §2
as §3, with “C. […]” for “C.”

[7] = test system: C. albicans ATCC MYA-1003(R) (strain G); experiment: microbe, parasite or virus in culture; type: cell-based, Candida albicans; settings: strain G; compounds 1-4n and AmB; 48 h, RPMI 1640
Description: as §1, §2
as §3, with “C. […]” for “C.”

[8] = test system: Candida albicans ATCC 10231 (strain A); experiment: Antifungal MIC determination (CLSI M27-A3, 96-well); type: cell-based; settings: strain A; compounds 1-4n and AmB; 48 h, RPMI 1640
Description: as §1, §2
as §3, with “C. […]” for “C.”

[9] = test system: Candida krusei ATCC 6258 (strain I); experiment: as above; type: cell-based; settings: strain I; compounds 1-4n and AmB; 48 h, RPMI 1640
Description: as §1, §2
as §3, with “C. […]” for “C.”

[10] = test system: Candida glabrata ATCC 2001 (strain H); experiment: as above; type: cell-based; settings: strain H; compounds 1-4n and AmB; 48 h, RPMI 1640
Description: as §1, §2
as §3, with “C. […]” for “C.”

[11] = test system: Candida parapsilosis ATCC 22019 (strain J); experiment: as above; type: cell-based; settings: strain J; compounds 1-4n and AmB; 48 h, RPMI 1640
Description: as §1, §2
as §3, with “C. […]” for “C.”

[12] = test system: C. albicans ATCC MYA-2876(S) (strain C); experiment: as above; type: cell-based, Candida albicans; settings: strain C; compounds 1-4n and AmB; 48 h, RPMI 1640
Description: as §1, §2
as §3, with “C. […]” for “C.”

[13] = test system: C. albicans ATCC MYA-2310(S) (strain E); experiment: as above; type: cell-based, Candida albicans; settings: strain E; compounds 1-4n and AmB; 48 h, RPMI 1640
Description: as §1, §2
as §3, with “C. […]” for “C.”

Row | SMILES | MIC-0 [1] [µg/mL] | MIC-0 [2] [µg/mL] | MIC-0 [3] [µg/mL] | MIC-0 [4] [µg/mL] | MIC-0 [5] [µg/mL] | MIC-0 [6] [µg/mL] | MIC-0 [7] [µg/mL] | MIC-0 [8] [µg/mL] | MIC-0 [9] [µg/mL] | MIC-0 [10] [µg/mL] | MIC-0 [11] [µg/mL] | MIC-0 [12] [µg/mL] | MIC-0 [13] [µg/mL]
1 | O=c1c2ccccc2sn1CCc1ccccc1 [Compound 3i] | 0.20 (≈ 0.783 µM) | 0.20 (≈ 0.783 µM) | 0.78 (≈ 3.05 µM) | 1.56 (≈ 6.11 µM) | 1.56 (≈ 6.11 µM) | 1.56 (≈ 6.11 µM) | 1.56 (≈ 6.11 µM) | 1.56 (≈ 6.11 µM) | 1.56 (≈ 6.11 µM) | 1.56 (≈ 6.11 µM) | 1.56 (≈ 6.11 µM) | 1.56 (≈ 6.11 µM) | 1.56 (≈ 6.11 µM)
2 | O=c1c2ccccc2sn1-c1ccc(F)cc1 [Compound 2b] | 12.5 (≈ 51 µM) | 12.5 (≈ 51 µM) | 6.25 (≈ 25.5 µM) | 6.25 (≈ 25.5 µM) | 3.13 (≈ 12.8 µM) | 6.25 (≈ 25.5 µM) | 1.56 (≈ 6.36 µM) | 3.13 (≈ 12.8 µM) | 3.13 (≈ 12.8 µM) | 6.25 (≈ 25.5 µM) | 12.5 (≈ 51 µM) | 3.13 (≈ 12.8 µM) | 3.13 (≈ 12.8 µM)
3 | O=c1c2ccccc2sn1C1CCCCCC1 [Compound 3m] | 0.20 (≈ 0.809 µM) | 0.20 (≈ 0.809 µM) | 0.10 (≈ 0.404 µM) | 1.56 (≈ 6.31 µM) | 1.56 (≈ 6.31 µM) | 1.56 (≈ 6.31 µM) | 3.13 (≈ 12.7 µM) | 1.56 (≈ 6.31 µM) | 0.39 (≈ 1.58 µM) | 3.13 (≈ 12.7 µM) | 3.13 (≈ 12.7 µM) | 3.13 (≈ 12.7 µM) | 3.13 (≈ 12.7 µM)
4 | CCCCCCCCn1sc2ccccc2c1=O [Compound 3c] | ≤0.02 | ≤0.02 | ≤0.02 | 1.56 (≈ 5.92 µM) | 3.13 (≈ 11.9 µM) | 1.56 (≈ 5.92 µM) | 1.56 (≈ 5.92 µM) | 6.25 (≈ 23.7 µM) | 1.56 (≈ 5.92 µM) | 1.56 (≈ 5.92 µM) | 0.78 (≈ 2.96 µM) | 6.25 (≈ 23.7 µM) | 1.56 (≈ 5.92 µM)
5 | CC(C)Cn1sc2ccccc2c1=O [Compound 3e] | 0.10 (≈ 0.482 µM) | 0.02 (≈ 0.0965 µM) | 0.20 (≈ 0.965 µM) | 0.78 (≈ 3.76 µM) | 0.78 (≈ 3.76 µM) | 1.56 (≈ 7.53 µM) | 1.56 (≈ 7.53 µM) | 0.78 (≈ 3.76 µM) | 0.39 (≈ 1.88 µM) | 1.56 (≈ 7.53 µM) | 0.78 (≈ 3.76 µM) | 0.78 (≈ 3.76 µM) | 0.78 (≈ 3.76 µM)
6 | O=c1c2ccccc2sn1-c1cccc2ccccc12 [Compound 2l] | 12.5 (≈ 45.1 µM) | 12.5 (≈ 45.1 µM) | 12.5 (≈ 45.1 µM) | >12.5 | 3.13 (≈ 11.3 µM) | 12.5 (≈ 45.1 µM) | 6.25 (≈ 22.5 µM) | 6.25 (≈ 22.5 µM) | 6.25 (≈ 22.5 µM) | 12.5 (≈ 45.1 µM) | 12.5 (≈ 45.1 µM) | >12.5 | >12.5
7 | CC(C)c1cccc(-n2sc3ccccc3c2=O)c1 [Compound 2h] | 12.5 (≈ 46.4 µM) | 12.5 (≈ 46.4 µM) | 6.25 (≈ 23.2 µM) | 3.13 (≈ 11.6 µM) | 3.13 (≈ 11.6 µM) | 3.13 (≈ 11.6 µM) | 3.13 (≈ 11.6 µM) | 3.13 (≈ 11.6 µM) | 3.13 (≈ 11.6 µM) | 3.13 (≈ 11.6 µM) | 3.13 (≈ 11.6 µM) | 3.13 (≈ 11.6 µM) | 3.13 (≈ 11.6 µM)
8 | O=c1c2ccccc2sn1-c1ccc(Cl)cc1 [Compound 2c] | 6.25 (≈ 23.9 µM) | 6.25 (≈ 23.9 µM) | 6.25 (≈ 23.9 µM) | 6.25 (≈ 23.9 µM) | 6.25 (≈ 23.9 µM) | >12.5 | 12.5 (≈ 47.8 µM) | 3.13 (≈ 12 µM) | 3.13 (≈ 12 µM) | 6.25 (≈ 23.9 µM) | 12.5 (≈ 47.8 µM) | 12.5 (≈ 47.8 µM) | 6.25 (≈ 23.9 µM)
